Assays:
Histamine H1 receptor = Histamine H1 receptor (Homo sapiens, UniProt P35367); assay: Binding affinity to histamine H1 receptor
hERG (KCNH2) = hERG (KCNH2) (Homo sapiens, UniProt Q12809); assay: Displacement of labeled dofetilide from human ERG at 3 uM; conditions: probe labeled dofetilide
Cytochrome P450 2D6 = Cytochrome P450 2D6 (Homo sapiens, UniProt P10635)
Cytochrome P450 3A4 = Cytochrome P450 3A4 (Homo sapiens, UniProt P08684)
[1] = Drug uptake in rat brain at 1 mg/kg, iv after 4 hrs; format: ADME, organism-based; parameters: dose 1 mg/kg, route intravenous; conditions: read-out: Drug uptake
[2] = Ratio of drug level in brain to plasma in rat at 1 mg/kg, iv after 4 hrs; format: ADME, organism-based; parameters: dose 1 mg/kg, route intravenous; conditions: read-out: BPR

Cytochrome P450 3A4, sequence (P08684 whole entry): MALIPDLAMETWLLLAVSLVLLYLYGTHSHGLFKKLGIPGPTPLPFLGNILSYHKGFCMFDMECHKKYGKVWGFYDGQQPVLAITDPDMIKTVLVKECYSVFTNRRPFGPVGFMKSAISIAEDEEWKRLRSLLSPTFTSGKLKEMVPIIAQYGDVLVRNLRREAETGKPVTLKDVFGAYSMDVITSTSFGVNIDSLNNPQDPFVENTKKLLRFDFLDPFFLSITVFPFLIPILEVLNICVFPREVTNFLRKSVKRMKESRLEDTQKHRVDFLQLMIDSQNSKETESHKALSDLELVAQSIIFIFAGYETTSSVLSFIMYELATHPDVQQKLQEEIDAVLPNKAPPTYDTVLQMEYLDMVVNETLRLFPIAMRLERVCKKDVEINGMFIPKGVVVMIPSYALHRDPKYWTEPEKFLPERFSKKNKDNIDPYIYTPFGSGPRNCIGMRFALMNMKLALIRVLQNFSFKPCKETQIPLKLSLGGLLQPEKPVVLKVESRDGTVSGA
Histamine H1 receptor, sequence (P35367 whole entry): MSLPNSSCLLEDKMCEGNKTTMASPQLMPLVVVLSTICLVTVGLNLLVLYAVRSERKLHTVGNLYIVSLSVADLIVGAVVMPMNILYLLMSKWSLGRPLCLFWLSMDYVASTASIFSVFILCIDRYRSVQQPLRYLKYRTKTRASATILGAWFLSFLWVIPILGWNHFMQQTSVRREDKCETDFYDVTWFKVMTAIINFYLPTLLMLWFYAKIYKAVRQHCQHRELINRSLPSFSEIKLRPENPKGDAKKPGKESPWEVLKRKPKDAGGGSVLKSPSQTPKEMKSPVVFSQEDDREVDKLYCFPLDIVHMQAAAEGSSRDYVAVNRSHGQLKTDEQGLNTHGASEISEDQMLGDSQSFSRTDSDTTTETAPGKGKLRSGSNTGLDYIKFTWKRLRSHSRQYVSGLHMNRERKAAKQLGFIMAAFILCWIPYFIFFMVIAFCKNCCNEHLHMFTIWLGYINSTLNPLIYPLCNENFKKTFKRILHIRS
Cytochrome P450 2D6, sequence (P10635 whole entry): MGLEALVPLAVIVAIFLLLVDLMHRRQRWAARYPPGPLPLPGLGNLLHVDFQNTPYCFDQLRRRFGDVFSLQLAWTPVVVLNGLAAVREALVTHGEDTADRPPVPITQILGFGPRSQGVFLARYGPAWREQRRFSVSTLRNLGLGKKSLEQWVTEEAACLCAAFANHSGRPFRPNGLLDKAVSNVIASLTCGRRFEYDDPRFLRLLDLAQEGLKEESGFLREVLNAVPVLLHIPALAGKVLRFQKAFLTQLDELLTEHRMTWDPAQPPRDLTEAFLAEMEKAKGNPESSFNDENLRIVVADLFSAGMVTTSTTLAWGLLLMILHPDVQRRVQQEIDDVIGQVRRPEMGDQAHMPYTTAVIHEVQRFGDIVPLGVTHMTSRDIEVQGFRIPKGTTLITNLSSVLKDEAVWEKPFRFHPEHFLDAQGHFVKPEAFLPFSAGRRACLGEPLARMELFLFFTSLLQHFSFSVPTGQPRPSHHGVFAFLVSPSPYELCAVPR
hERG (KCNH2), sequence (Q12809 whole entry): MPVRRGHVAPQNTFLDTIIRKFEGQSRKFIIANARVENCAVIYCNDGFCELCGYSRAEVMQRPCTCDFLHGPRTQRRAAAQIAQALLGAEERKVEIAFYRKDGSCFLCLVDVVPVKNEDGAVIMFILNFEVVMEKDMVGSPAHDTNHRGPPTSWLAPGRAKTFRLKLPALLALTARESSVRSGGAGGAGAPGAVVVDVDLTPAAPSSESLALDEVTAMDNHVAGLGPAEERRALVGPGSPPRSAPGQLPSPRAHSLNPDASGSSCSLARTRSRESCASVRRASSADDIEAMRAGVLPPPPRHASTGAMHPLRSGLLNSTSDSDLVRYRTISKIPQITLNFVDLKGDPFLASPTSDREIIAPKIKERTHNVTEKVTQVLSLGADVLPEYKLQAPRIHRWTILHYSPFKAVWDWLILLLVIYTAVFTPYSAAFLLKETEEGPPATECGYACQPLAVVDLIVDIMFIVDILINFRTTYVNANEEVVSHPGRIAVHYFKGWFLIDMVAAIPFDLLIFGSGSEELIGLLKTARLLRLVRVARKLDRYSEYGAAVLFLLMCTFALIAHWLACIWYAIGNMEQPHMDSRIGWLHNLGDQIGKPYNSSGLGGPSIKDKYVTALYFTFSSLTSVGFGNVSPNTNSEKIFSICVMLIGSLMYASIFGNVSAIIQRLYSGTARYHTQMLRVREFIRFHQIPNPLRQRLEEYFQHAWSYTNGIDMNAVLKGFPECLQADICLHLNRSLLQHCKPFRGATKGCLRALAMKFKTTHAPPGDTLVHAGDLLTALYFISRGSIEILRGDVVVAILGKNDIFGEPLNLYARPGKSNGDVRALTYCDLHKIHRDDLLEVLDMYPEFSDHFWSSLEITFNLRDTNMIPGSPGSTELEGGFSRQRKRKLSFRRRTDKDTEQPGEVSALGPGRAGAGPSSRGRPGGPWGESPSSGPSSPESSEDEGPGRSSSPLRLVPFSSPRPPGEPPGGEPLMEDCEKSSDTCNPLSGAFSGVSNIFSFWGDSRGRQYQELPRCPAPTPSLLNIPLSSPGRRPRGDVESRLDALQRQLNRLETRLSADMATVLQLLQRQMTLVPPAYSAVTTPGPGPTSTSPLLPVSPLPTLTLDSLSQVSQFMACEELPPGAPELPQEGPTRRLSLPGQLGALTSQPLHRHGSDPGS

Work on `FC1(F)CCN(CCC2=C(Cc3cnccn3)c3ccccc3C2)C1` yielded a Ki (Histamine H1 receptor) of 0.249 µM, an inhibition at 3 µM (hERG (KCNH2)) of 0% and an IC50 (Cytochrome P450 2D6) of 7.53 µM. The IC50 (Cytochrome P450 3A4) was 1.4 µM.

For `C[C@H](C1=C(CCN(C)Cc2cnccn2)Cc2ccccc21)c1cnccn1`, the Ki (Histamine H1 receptor) was 0.0247 µM, the inhibition at 3 µM (hERG (KCNH2)) was 0% and the IC50 (Cytochrome P450 2D6) was > 10 µM. The IC50 (Cytochrome P450 3A4) was > 10 µM.

`FC1CN(CCC2=C(Cc3cnccn3)c3ccccc3C2)C1` showed a Ki (Histamine H1 receptor) of 0.049 µM, an inhibition at 3 µM (hERG (KCNH2)) of 0% and an IC50 (Cytochrome P450 2D6) of 6.47 µM. The IC50 (Cytochrome P450 3A4) was > 10 µM.

In the case of `FC1(F)CN(CCC2=C(Cc3cnccn3)c3ccccc3C2)C1`, the Ki (Histamine H1 receptor) is reported as 4.61 µM, the inhibition at 3 µM (hERG (KCNH2)) is reported as 0% and the IC50 (Cytochrome P450 2D6) is reported as > 10 µM.

With `C[C@H](C1=C(CCN(C)CCC#N)Cc2ccccc21)c1cnccn1` the Ki (Histamine H1 receptor) was 0.109 µM, the inhibition at 3 µM (hERG (KCNH2)) was 0% and the IC50 (Cytochrome P450 2D6) was > 10 µM. The IC50 (Cytochrome P450 3A4) was > 10 µM.

`C[C@H](C1=C(CCN(C)CCF)Cc2ccccc21)c1cnccn1` gave a Ki (Histamine H1 receptor) of 0.013 µM, an inhibition at 3 µM (hERG (KCNH2)) of 0% and an IC50 (Cytochrome P450 2D6) of 2.61 µM. For the same compound, the IC50 (Cytochrome P450 3A4) was > 10 µM.

`C[C@H](C1=C(CCN(C)Cc2cccs2)Cc2ccccc21)c1cnccn1` gave a Ki (Histamine H1 receptor) of 0.0067 µM, an inhibition at 3 µM (hERG (KCNH2)) of 0% and an IC50 (Cytochrome P450 2D6) of 1.43 µM. For the same compound, the IC50 (Cytochrome P450 3A4) was 1.83 µM.

`FC1CCN(CCC2=C(Cc3cnccn3)c3ccccc3C2)C1` (stereo unspecified) gave a Ki (Histamine H1 receptor) of 0.0105 µM, an inhibition at 3 µM (hERG (KCNH2)) of 0% and a concentration at 4 h [1] of 57 ng/g. The Kp at 4 h [2] was 3.9, the IC50 (Cytochrome P450 2D6) was 4.29 µM and the IC50 (Cytochrome P450 3A4) was > 10 µM.

Work on `CCN(C)CCC1=C(Cc2cnccn2)c2ccccc2C1` yielded a Ki (Histamine H1 receptor) of 0.0072 µM, an inhibition at 3 µM (hERG (KCNH2)) of 0% and an IC50 (Cytochrome P450 2D6) of 4.35 µM. For the same compound, the IC50 (Cytochrome P450 3A4) was > 10 µM.

For `C[C@H](C1=C(CCN(C)Cc2nccs2)Cc2ccccc21)c1cnccn1`, the Ki (Histamine H1 receptor) was 0.048 µM, the inhibition at 3 µM (hERG (KCNH2)) was 0% and the IC50 (Cytochrome P450 2D6) was > 10 µM. It also gave an IC50 (Cytochrome P450 3A4) of 2.82 µM.

`C[C@H](C1=C(CCN(C)Cc2ncc[nH]2)Cc2ccccc21)c1cnccn1` gave a Ki (Histamine H1 receptor) of 0.0088 µM, an inhibition at 3 µM (hERG (KCNH2)) of 0% and an IC50 (Cytochrome P450 2D6) of 5.85 µM. For the same compound, the IC50 (Cytochrome P450 3A4) was 4.42 µM.

`c1ccc2c(c1)CC(CCN1CCC1)=C2Cc1cnccn1` showed a Ki (Histamine H1 receptor) of 0.0043 µM, an inhibition at 3 µM (hERG (KCNH2)) of 0% and an IC50 (Cytochrome P450 2D6) of 8.85 µM. For the same compound, the IC50 (Cytochrome P450 3A4) was > 10 µM.

`c1ccc2c(c1)CC(CCN1CCCC1)=C2Cc1cnccn1` showed a Ki (Histamine H1 receptor) of 0.0028 µM, an inhibition at 3 µM (hERG (KCNH2)) of 0% and an IC50 (Cytochrome P450 2D6) of 3.38 µM. The IC50 (Cytochrome P450 3A4) was > 10 µM.

`C[C@H](C1=C(CCN(C)Cc2ccco2)Cc2ccccc21)c1cnccn1` gave a Ki (Histamine H1 receptor) of 0.0081 µM, an inhibition at 3 µM (hERG (KCNH2)) of 0% and an IC50 (Cytochrome P450 2D6) of 4.36 µM. It also gave an IC50 (Cytochrome P450 3A4) of 2.75 µM.

Compound `C[C@H](C1=C(CCN(C)Cc2nccn2C)Cc2ccccc21)c1cnccn1` has a Ki (Histamine H1 receptor) of 0.028 µM, an inhibition at 3 µM (hERG (KCNH2)) of 0% and an IC50 (Cytochrome P450 2D6) of 5.68 µM. For the same compound, the IC50 (Cytochrome P450 3A4) was 1.54 µM.

With `CN(CCF)CCC1=C(Cc2cnccn2)c2ccccc2C1` the inhibition at 3 µM (hERG (KCNH2)) was 0%, the IC50 (Cytochrome P450 2D6) was 3.09 µM and the IC50 (Cytochrome P450 3A4) was > 10 µM.

For `C[C@H](C1=C(CCN(C)Cc2ncco2)Cc2ccccc21)c1cnccn1`, the Ki (Histamine H1 receptor) was 0.162 µM, the inhibition at 3 µM (hERG (KCNH2)) was 0% and the IC50 (Cytochrome P450 2D6) was > 10 µM. For the same compound, the IC50 (Cytochrome P450 3A4) was 4.84 µM.

In the case of `C[C@H](C1=C(CCN(C)CC#N)Cc2ccccc21)c1cnccn1`, the Ki (Histamine H1 receptor) is reported as 0.032 µM, the inhibition at 3 µM (hERG (KCNH2)) is reported as 0% and the IC50 (Cytochrome P450 2D6) is reported as > 10 µM. For the same compound, the IC50 (Cytochrome P450 3A4) was > 10 µM.

With `C[C@H](C1=C(CCN(C)Cc2ccccn2)Cc2ccccc21)c1cnccn1` the Ki (Histamine H1 receptor) was 0.0139 µM, the inhibition at 3 µM (hERG (KCNH2)) was 0% and the IC50 (Cytochrome P450 2D6) was 5.71 µM. The IC50 (Cytochrome P450 3A4) was 4.78 µM.

`C[C@H](C1=C(CCN(C)CC2CCOCC2)Cc2ccccc21)c1cnccn1` gave a Ki (Histamine H1 receptor) of 0.0152 µM, an inhibition at 3 µM (hERG (KCNH2)) of 0% and an IC50 (Cytochrome P450 2D6) of 9.37 µM. For the same compound, the IC50 (Cytochrome P450 3A4) was > 10 µM.

For `C[C@H](C1=C(CCN(C)CCC(F)(F)F)Cc2ccccc21)c1cnccn1`, the Ki (Histamine H1 receptor) was 0.091 µM, the inhibition at 3 µM (hERG (KCNH2)) was 0% and the IC50 (Cytochrome P450 2D6) was 7.22 µM. For the same compound, the IC50 (Cytochrome P450 3A4) was > 5 µM.

Compound `C[C@H](C1=C(CCN(C)Cc2ccncc2)Cc2ccccc21)c1cnccn1` has a Ki (Histamine H1 receptor) of 0.0049 µM, an inhibition at 3 µM (hERG (KCNH2)) of 0% and an IC50 (Cytochrome P450 2D6) of 7.96 µM.

Compound `CCCN(C)CCC1=C(Cc2cnccn2)c2ccccc2C1` has a Ki (Histamine H1 receptor) of 0.041 µM, an inhibition at 3 µM (hERG (KCNH2)) of 0% and an IC50 (Cytochrome P450 2D6) of 0.973 µM. For the same compound, the IC50 (Cytochrome P450 3A4) was 4.04 µM.
